Experimental data taken from patent US20230272479A1, “BIOMARKER BASED PATIENT SELECTION FOR PROTEASOME INHIBITOR TREATMENT” (University of Utah Research Foundation, priority 2020, published 2023).
Residues, ends and D or L forms follow the SMILES beside them. *: point of attachment. Cbz = O=C(OCc1ccccc1)*; CH2F = FC*

Legend:
Jurkat cells = experiment: Viability of WT or ATAD1Δ Jurkat cells after treatment with MCL1 inhibitor; assay type: cell-based, human; details: ATAD1Δ vs WT Jurkat cells, 24 hr treatment
Protocol: FIGS. 2A-2G show genome-wide CRISPR screens identify genetic interactions with ATAD1 (A) Schematic of CRISPR screening strategy (B) Generation of clonal ATAD1 knockout in a PTEN-null genetic background of Jurkat cells and proliferation rate of ATAD1Δ and WT Jurkat cells in RPMI1640 media (C) Volcano plot of CRISPR screening results; CRISPR scores were defined as the mean Log2 fold-change of sgRNAs targeting a given gene. Differential CRISPR scores (dCS) were calculated by subtracting the WT CS from the ATAD1Δ CS. dCS combined is the sum of dCS values for each clone. P-values were calculated for each gene using Kolmogorov-Smirnov with Benjamini Hochberg correction and Fisher's Method for P value meta-analysis. Dashed lines demarcate dCS<−2 and Padj<0.05 (D) DepMap data showing correlation of MARCH5 dependency and MCL1 dependency (E) Western blot of whole cell lysates from WT or ATAD1Δ Jurkat cells showing steady-state levels of BIM, MCL1, and FIS1, a non-BCL2 family control (F) Quantification of BIMEL levels in ATAD1Δ cells; n=6 independent experiments (G) Viability of WT or ATAD1Δ Jurkat cells after 24 hr treatment with the MCL1 inhibitor, AMG176.
Thus, like MARCH5, ATAD1 modulates members the BCL2 family and affects apoptotic priming as measured by sensitivity to a BH3-mimetic. […]

H4 glioma cells = experiment: BH3 profiling (cytochrome C release / MOMP) in permeabilized H4 glioma cells; assay type: cell-based; details: compared across ATAD1 status
Protocol: Cells were treated with doxycycline (250 ng/mL) for 24 hr (F) Co-immunoprecipitation of ATAD1-FLAG/HA and GFP-BIMEL in cells stably expressing ATAD1-FLAG or EV and transiently transfected overnight with GFP-BIMEL in the presence of zVAD-fmk (G) RPMI7951 cells were treated with MG132 (10 μM) for 4 hr, whole-cell lysates were prepped and analyzed by Western blot. (H) Schematic of reconstituted proteoliposome extraction assay (I) Extraction assay using His-ATAD1 and 3×FLAG-BIML (lanes 1-4, 9-20) or the negative control TA protein, 3×FLAG-Fis1 (lanes 5-8); GST-tagged SGTA and calmodulin (CaM) are included as chaperones to catch extracted TA protein. “I”=Input, “FT”=flow-through, “W”=final wash, “E”=elution. Eluted fractions represent TA proteins extracted by ATAD1 and bound by GST-tagged chaperones; compare elution “E” to input “I”. † denotes P<0.0001
To gain insight into how loss of ATAD1 affects apoptotic priming, BH3 profiling was conducted (33). Here, permeabilized cells are treated with BH3 peptides derived from different pro-apoptotic BH3-only proteins, and mitochondrial outer membrane permeability (MOMP) is directly measured by detecting cytochrome C release from mitochondria (FIG. 3A). […] This priming reflects a change in how the cell regulates the endogenous BIM protein. […]

[1] = tested on: Del10q23 cells (SW1088 and H4 glioma and RPMI7951 melanoma); experiment: Viability of Del10q23 cells treated with proteasome inhibitors (Cell Titer Glo, crystal violet); assay type: cell-based
Protocol: (§1) FIGS. 4A-4K show ATAD1 protects cells from apoptosis induced by proteasome dysfunction. (A) Viability of SW1088 cells transduced with EV or ATAD1-FLAG and treated for 24 hr with indicated drugs (B) Time-course of viability in response to bortezomib treatment in SW1088 cells (C) Western blot of RPMI7951 whole cell lysate treated with 10 nM bortezomib for 8 hr (D) Quantification of C (E) Viability of ATAD1-null vs. re-expressing RPMI7951 cells in response to 16 hr treatment with BTZ and the pan-caspase inhibitor, zVAD-FMK (20 μM) or DMSO (zVAD vehicle) (F) Same as E, but viability was measured by crystal violet staining and quantified in (G). (H) Schematic describing the role of ATAD1 in proteasome inhibitor toxicity (I) Tumor size of subcutaneous xenografts of SW1088 cells in NOD/SCID mice over time (J) Incidence of palpable tumors, or tumor-free survival, over time (K) Proliferation of cultured SW1088 cells as measured with crystal violet staining, n=2 independent experiments. † represents P<0.0001
(§2) FIGS. 8A-8I show restoring ATAD1 expression in Del(10q23) cells increases resistance to proteasome inhibitors. (A) RPMI7951 cells were treated for 16 hr with bortezomib or carfilzomib and viability was measured by Cell Titer Glo. (B) Time-course of RPMI7951 cells treated with bortezomib (3.125 nM) n=3 biological replicates (C) SW1088 cells were cultured in 5 nM bortezomib for 48 hr and RPMI7951 cells were cultured for 24 hr and viability was assessed by crystal violet staining (D) H4 cells were treated with bortezomib for 24 hr and assessed by Cell Titer Glo (E) ATAD1 addback rescues mitochondrial morphology phenotype in response to bortezomib in SW1088 cells. Cells were treated with BTZ (10 nM) for 12 hr and stained with MitoTracker Red, then imaged on a widefield fluorescence microscope (F) Expression of ATAD1 in DepMap cell lines, highlighting PC3 cells (ATAD1 hemizygous), and two Del10q23 cell lines (G) Generation of ATAD1-deficient, polyclonal PC3 cells using stable expression of sgATAD1 (in LCv2G), with untargeted Cas9 only as a control (LCv2G) (H) Deletion of ATAD1 increases sensitivity to bortezomib in PC3 cells. […]
(§3) Viability was determined by Cell Titer Glo (Promega) according to the manufacturer's recommendation, with some modifications. […] Luminescence was measured using a Biotek Synergy Neo2 microplate reader. Luminescence values were normalized on each plate to untreated cells on the same plate, and expressed as percent.
Cells cultured in 12 or 6 well plates were washed twice with PBS then fixed with 4% paraformaldehyde (Sigma Aldrich) for 30 minutes at room temperature. […] Absorbance was measured at 590 nm using a Biotek Synergy Neo2 microplate reader, and values were normalized to those from untreated cells of the same genotype on each plate.

PC3 cells = experiment: Viability of PC3 cells with ATAD1 deletion or overexpression treated with bortezomib; assay type: cell-based
Protocol: as §2
Viability was determined by Cell Titer Glo (Promega) according to the manufacturer's recommendation, with some modifications. […] Luminescence was measured using a Biotek Synergy Neo2 microplate reader. […]

[2] = tested on: Del10q23 cells (RPMI7951); experiment: Apoptosis by Western blot of whole cell lysate after bortezomib; assay type: cell-based; details: RPMI7951, 10 nM, 8 hr
Protocol: as §1
Whole cell lysates were prepared by scraping cells directly into RIPA buffer supplemented with protease and phosphatase inhibitors (Sigma Aldrich P8340, Roche Molecular 04906845001), incubated on ice for 30 minutes with vortexing every 10 min, and then spun at 16,000 g for 10 minutes at 4° C. to remove insoluble material. Supernatant was saved as lysate. […]

RPMI7951 cells = experiment: Viability of ATAD1-null vs. re-expressing RPMI7951 cells with BTZ and pan-caspase inhibitor; assay type: cell-based; details: 16 hr BTZ, zVAD-FMK 20 μM
Protocol: as §1
as §3, with “percent. […]” for “percent.”

[3] = Del10q23 cells (ATAD1-null, EV)
[4] = Del10q23 cells with expression of ATAD1

CO[C@H]1/C=C/C[C@H](C)[C@@H](C)S(=O)(=O)NC(=O)c2ccc3c(c2)N(C[C@@H]2CC[C@H]21)C[C@@]1(CCCc2cc(Cl)ccc21)CO3 [AMG176]
apoptotic priming (sensitivity to BH3-mimetic, viability) (Jurkat cells): primed cells for apoptosis induced by AMG176

CC(=O)NC(C)(C)C(=O)N1CCC[C@H]1C(=O)NC(C)(C)C(=O)N[C@@H](C)C(=O)NC(C)(C)C(=O)N[C@@H](C)C(=O)N[C@@H](CCC(N)=O)C(=O)NC(C)(C)C(=O)N[C@H](C(=O)NC(C)(C)C(=O)NCC(=O)N[C@@H](CC(C)C)C(=O)NC(C)(C)C(=O)N1CCC[C@H]1C(=O)N[C@H](C(=O)NC(C)(C)C(=O)NC(C)(C)C(=O)N[C@@H](CCC(=O)O)C(=O)N[C@@H](CCC(N)=O)C(=O)N[C@H](CO)Cc1ccccc1)C(C)C)C(C)C [Alamethicin] (HELM PEPTIDE1{[ac].[Aib].P.[Aib].A.[Aib].A.Q.[Aib].V.[Aib].G.L.[Aib].P.V.[Aib].[Aib].E.Q.[OC[C@H](Cc1ccccc1)N[*:1]]}$$$$V2.0)
cytochrome C release (H4 glioma cells): induced cytochrome C release equally regardless of ATAD1 status

CC(C)C[C@H](NC(=O)[C@H](Cc1ccccc1)NC(=O)c1cnccn1)B(O)O [bortezomib]
loss of viability [1, 3]: potently and rapidly induced a loss of viability
loss of viability [1, 4]: mitigated by expression of ATAD1
sensitivity (viability) (PC3 cells; deletion of the remaining allele of ATAD1): sensitized to bortezomib
resistance (viability) (PC3 cells; overexpression of ATAD1 (not ATAD1E193Q)): increased resistance to bortezomib
apoptosis ([2]; ATAD1 re-expressing cells): only minimally
apoptosis ([2]; Del10q23-EV cells): robust apoptosis

CC(C)C[C@H](NC(=O)[C@H](CCc1ccccc1)NC(=O)CN1CCOCC1)C(=O)N[C@@H](Cc1ccccc1)C(=O)N[C@@H](CC(C)C)C(=O)[C@@]1(C)CO1 [carfilzomib]
loss of viability [1, 3]: potently and rapidly induced a loss of viability
loss of viability [1, 4]: mitigated by expression of ATAD1

COC(=O)C[C@H](NC(=O)[C@H](C)NC(=O)[C@@H](NC(=O)OCc1ccccc1)C(C)C)C(=O)CF [zVAD] (Cbz-Val-Ala-Asp(OMe)-CH2F)
effect on viability under bortezomib (RPMI7951 cells): minimal additive effect
